The source of these data is patent US20110195111A1, “AQUEOUS COMPOSITIONS AND METHODS” (NATIVIS, INC., priority 2009, published 2011).

The test system of this experiment is U-87 glioblastoma cells. The experiment is described as follows: U-87 glioblastoma flank tumor growth in mice. The experiment is classed as in vivo. Conditions: U-87 flank tumors in mice, 24-day period; untreated about 650 mm^3 (FIG. 11). On the procedure: The ability of water exposed to a taxane signal to inhibit a glioblastoma tumor in an animal model was investigated. In this study, nine groups of 8 mice were each injected in the right flank with 7.355×10^6 U-87 glioblastoma cells, and treatment with the various modalities was begun either one day after inoculating the animals with the cells, or when the tumors reached 75-100 mm^3.
Paclitaxel was initially dissolved in a 1:1 v/v mixture of CremaphorEL and ethanol and stored at 4° C. Final dilution of the drug to a concentration of 1.5 mg/ml was made with 0.9% NaCl immediately before use. In Groups 3 and 4, the paclitaxel was administered by intravenous injection into the tail vein at a dose of 15/mg/kg animal weight on each of five consecutive days. The actual volume administered to each animal was about 0.2 ml of the above paclitaxel formulation.
Animals in Groups 5 and 6 received 20 ml/kg (or about 0.5 ml) of water exposed to taxane signal prepared as described in Section VII, with the Range 1 magnetic field. […]
For all groups, tumor volumes were measured every other day by serial caliper measurements to determine tumor width and length, and calculating an approximate tumor volume from the formula: Tumor volume=(length×width^2)/2.

The structures appear in SMILES notation.

`CC(=O)O[C@H]1C(=O)[C@@]2(C)[C@H]([C@H](OC(=O)c3ccccc3)[C@]3(O)C[C@H](OC(=O)[C@H](O)[C@@H](NC(=O)c4ccccc4)c4ccccc4)C(C)=C1C3(C)C)[C@]1(OC(C)=O)CO[C@@H]1C[C@@H]2O` [paclitaxel]: the “increase in tumor volume over the study period, untreated versus treated animals” value is recorded as “more than twice as high in untreated”.
